Measurements published in ChEMBL document CHEMBL4049398, “Microscale High-Throughput Experimentation as an Enabling Technology in Drug Discovery: Application in the Discovery of (Piperidinyl)pyridinyl-1H-benzimidazole Diacylglycerol Acyltransferase 1 Inhibitors” (J Med Chem, 2017).
In brackets after ≈: the same amount, converted by molar mass.

Legend:
[1] = target: T1, Diacylglycerol O-acyltransferase 1 (Homo sapiens, UniProt O75907); experiment: Inhibition of human DGAT1 expressed in yeast membrane fraction assessed as inhibition of triglyceride formation using diolein/oleoyl-CoA as substrate measured after 1 hr by 7-diethylamino-3-(4'-maleimidylphenyl)-4-methylcoumarin based fluorescence analysis; assay type: cell membranes
T1 sequence (O75907 whole entry): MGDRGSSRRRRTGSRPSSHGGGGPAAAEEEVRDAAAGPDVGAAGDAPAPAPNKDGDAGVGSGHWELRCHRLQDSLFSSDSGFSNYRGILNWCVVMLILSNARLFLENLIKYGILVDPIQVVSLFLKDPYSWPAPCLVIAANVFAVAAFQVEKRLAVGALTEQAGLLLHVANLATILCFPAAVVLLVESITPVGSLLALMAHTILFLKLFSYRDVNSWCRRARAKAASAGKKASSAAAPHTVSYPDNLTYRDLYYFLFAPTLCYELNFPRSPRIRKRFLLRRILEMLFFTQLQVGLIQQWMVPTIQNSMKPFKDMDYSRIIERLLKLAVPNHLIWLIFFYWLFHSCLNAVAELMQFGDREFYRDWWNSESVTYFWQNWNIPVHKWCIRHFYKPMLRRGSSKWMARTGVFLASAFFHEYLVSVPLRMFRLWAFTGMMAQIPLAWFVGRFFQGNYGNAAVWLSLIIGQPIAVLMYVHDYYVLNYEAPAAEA

[2] = Solubility of the compound at pH 7; assay type: physicochemical; conditions: buffer
Cytochrome P450 2C9 = Cytochrome P450 2C9 (Homo sapiens, UniProt P11712); experiment: Inhibition of CYP2C9 (unknown origin); assay type: ADME
[3] = Solubility of the compound at pH 2; assay type: physicochemical; conditions: buffer
Cytochrome P450 3A4 = Cytochrome P450 3A4 (Homo sapiens, UniProt P08684); experiment: Inhibition of CYP3A4 (unknown origin); assay type: ADME
Mus musculus [4] = experiment: Reduction in triglyceride level in mouse plasma at 30 mg/kg, po after 18 hrs by lipid tolerance test; assay type: functional
[5] = Lipophilicity, log D of the compound; assay type: physicochemical; conditions: octanol/water
Mus musculus [6] = experiment: Reduction in triglyceride level in mouse plasma at 10 mg/kg,po after 18 hrs by lipid tolerance test; assay type: functional
[7] = target: T2, Nuclear receptor subfamily 1 group I member 2 (Homo sapiens, UniProt O75469); experiment: Inhibition of PXR (unknown origin); assay type: ADME
T2 sequence (O75469 whole entry): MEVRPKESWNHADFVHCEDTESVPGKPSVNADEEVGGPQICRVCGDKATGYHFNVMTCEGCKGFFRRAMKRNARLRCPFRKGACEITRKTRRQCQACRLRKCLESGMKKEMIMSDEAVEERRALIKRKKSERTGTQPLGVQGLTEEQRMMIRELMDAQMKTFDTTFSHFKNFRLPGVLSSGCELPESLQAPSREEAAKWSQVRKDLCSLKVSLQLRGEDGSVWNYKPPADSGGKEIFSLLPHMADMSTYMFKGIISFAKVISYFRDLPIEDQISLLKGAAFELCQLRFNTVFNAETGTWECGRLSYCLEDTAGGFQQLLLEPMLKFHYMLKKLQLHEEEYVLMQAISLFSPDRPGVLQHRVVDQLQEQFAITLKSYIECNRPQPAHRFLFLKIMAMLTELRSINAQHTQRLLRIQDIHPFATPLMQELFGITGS

[8] = target: Voltage-gated inwardly rectifying potassium channel KCNH2 (Homo sapiens, UniProt Q12809); experiment: Inhibition of MK499 binding to human ERG
Rattus norvegicus = experiment: Intrinsic clearance Wistar Han rat at 1 mg/kg, iv; assay type: ADME, organism-based; conditions: in vivo

Voltage-gated inwardly rectifying potassium channel KCNH2, sequence (Q12809 whole entry): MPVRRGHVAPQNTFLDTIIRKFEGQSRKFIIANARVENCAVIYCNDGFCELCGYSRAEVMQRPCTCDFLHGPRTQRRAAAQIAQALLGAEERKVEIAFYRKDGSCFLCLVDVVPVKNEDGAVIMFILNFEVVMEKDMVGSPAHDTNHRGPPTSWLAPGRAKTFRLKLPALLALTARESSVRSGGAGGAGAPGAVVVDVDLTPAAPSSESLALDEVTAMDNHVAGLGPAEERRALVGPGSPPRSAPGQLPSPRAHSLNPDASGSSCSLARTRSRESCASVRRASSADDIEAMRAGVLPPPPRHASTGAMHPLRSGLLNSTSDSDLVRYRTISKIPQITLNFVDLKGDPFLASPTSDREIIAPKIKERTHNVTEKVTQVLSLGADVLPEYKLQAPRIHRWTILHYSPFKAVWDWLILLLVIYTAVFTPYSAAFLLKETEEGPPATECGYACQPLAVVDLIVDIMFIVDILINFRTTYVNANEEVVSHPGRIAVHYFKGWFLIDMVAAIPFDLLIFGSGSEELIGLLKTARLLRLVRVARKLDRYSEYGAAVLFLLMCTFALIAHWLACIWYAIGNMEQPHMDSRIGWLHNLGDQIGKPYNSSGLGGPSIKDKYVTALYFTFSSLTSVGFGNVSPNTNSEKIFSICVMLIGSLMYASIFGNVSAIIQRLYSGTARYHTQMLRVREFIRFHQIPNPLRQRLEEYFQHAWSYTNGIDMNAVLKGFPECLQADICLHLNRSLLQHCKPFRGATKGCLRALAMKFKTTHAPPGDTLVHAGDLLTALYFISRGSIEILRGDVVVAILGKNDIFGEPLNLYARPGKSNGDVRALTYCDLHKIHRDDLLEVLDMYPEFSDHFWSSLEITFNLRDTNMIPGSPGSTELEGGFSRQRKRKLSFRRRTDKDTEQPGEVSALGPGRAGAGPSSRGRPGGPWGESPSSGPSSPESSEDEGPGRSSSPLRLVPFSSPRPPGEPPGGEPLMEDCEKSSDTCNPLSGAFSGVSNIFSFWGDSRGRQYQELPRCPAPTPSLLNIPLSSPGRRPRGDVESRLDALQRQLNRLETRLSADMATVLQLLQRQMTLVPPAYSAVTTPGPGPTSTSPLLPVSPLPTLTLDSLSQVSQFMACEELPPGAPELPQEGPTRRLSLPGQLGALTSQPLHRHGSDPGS
Cytochrome P450 2C9, sequence (P11712 whole entry): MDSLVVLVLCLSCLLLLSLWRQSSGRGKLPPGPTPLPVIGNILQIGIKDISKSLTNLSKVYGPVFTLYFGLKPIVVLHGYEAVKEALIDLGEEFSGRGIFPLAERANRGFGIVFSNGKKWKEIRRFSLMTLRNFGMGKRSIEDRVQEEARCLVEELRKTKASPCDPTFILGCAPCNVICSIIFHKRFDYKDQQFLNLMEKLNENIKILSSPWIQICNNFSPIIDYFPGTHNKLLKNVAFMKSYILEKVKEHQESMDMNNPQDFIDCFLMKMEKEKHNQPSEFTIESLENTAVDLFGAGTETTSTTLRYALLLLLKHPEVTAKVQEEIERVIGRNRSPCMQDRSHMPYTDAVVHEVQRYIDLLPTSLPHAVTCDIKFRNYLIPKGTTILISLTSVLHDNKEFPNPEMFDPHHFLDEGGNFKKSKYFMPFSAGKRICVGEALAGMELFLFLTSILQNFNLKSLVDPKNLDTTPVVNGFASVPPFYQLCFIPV
Cytochrome P450 3A4, sequence (P08684 whole entry): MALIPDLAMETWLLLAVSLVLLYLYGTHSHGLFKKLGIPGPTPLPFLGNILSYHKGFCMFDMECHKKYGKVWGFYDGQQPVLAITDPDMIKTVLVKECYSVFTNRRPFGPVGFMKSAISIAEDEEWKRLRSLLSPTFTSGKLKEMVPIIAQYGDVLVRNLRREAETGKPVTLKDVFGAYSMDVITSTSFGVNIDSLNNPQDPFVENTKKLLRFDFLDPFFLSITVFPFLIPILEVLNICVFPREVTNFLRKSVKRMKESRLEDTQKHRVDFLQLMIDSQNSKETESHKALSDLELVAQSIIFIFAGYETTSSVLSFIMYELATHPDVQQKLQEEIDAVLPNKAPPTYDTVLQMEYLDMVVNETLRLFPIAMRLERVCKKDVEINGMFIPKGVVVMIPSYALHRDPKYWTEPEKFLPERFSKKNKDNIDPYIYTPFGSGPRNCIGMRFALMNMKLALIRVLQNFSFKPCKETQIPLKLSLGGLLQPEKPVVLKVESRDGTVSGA

| SMILES | IC50 [1] | solubility ([2]; read-out: solubility) | IC50 (Cytochrome P450 2C9) | solubility ([3]; read-out: solubility) | IC50 (Cytochrome P450 3A4) | logD ([5]; read-out: logD) | IC50 [7] | IC50 [8] | further results |
| --- | --- | --- | --- | --- | --- | --- | --- | --- | --- |
| O=C1OC2(CCN(c3ccc(-c4nc5cc(Cl)ccc5[nH]4)cn3)CC2)c2cnccc21 | 66 nM | – | – | – | – | – | – | – | – |
| FC(F)(F)c1ccc2[nH]c(-c3ccc(N4CCC(c5ccccc5)(c5ccccc5)CC4)nc3)nc2c1 | 1640 nM | – | – | – | – | – | – | – | – |
| O=C(O)C[C@@H]1COC2(CCN(c3ccc(-c4nc5cc(C(F)(F)F)ccc5[nH]4)cn3)CC2)C1 | – | 158 µM (≈ 72.8 µg/mL) | > 50 µM | 171 µM (≈ 78.7 µg/mL) | > 50 µM | 1.44 | > 30 µM | – | inhibition in vivo at 30 mg/kg (Mus musculus [4]): 54%; inhibition in vivo at 10 mg/kg (Mus musculus [6]): 32% |
| O=C(O)C1CCC2(CCN(c3ccc(-c4nc5cc(C(F)(F)F)ccc5[nH]4)cn3)CC2)CO1 (centres undefined) | 364 nM | 154 µM (≈ 70.9 µg/mL) | – | 167 µM (≈ 76.9 µg/mL) | – | 1.54 | – | – | – |
| Clc1ccc2[nH]c(-c3ccc(N4C[C@@H]5C[C@H]4CN5c4ccccc4)nc3)nc2c1 | > 10000 nM | – | – | – | – | – | – | – | – |
| O=C(O)C1CCC2(CCN(c3ccc(-c4nc5cc(C(F)(F)F)ccc5[nH]4)cn3)CC2)OC1 (centres undefined) | – | 163 µM (≈ 75.1 µg/mL) | > 50 µM | 174 µM (≈ 80.1 µg/mL) | > 50 µM | 1.52 | > 30 µM | 14.7 µM | – |
| FC(F)(F)c1ccc2[nH]c(-c3ccc(N4CCC(c5ccccn5)CC4)nc3)nc2c1 | 62 nM | – | – | – | – | – | – | – | – |
| FC(F)(F)c1ccc2[nH]c(-c3ccc(N4CCC5(CC4)OC(Cc4cc(Cl)cc(Cl)c4)c4ccccc45)nc3)nc2c1 (centres undefined) | 8700 nM | – | – | – | – | – | – | – | – |
| O=C(O)C[C@H]1COC2(CCN(c3ccc(-c4nc5cc(C(F)(F)F)ccc5[nH]4)cn3)CC2)C1 | – | 153 µM (≈ 70.4 µg/mL) | > 50 µM | 170 µM (≈ 78.3 µg/mL) | > 50 µM | 1.45 | > 30 µM | – | – |
| O=C1OC2(CCN(c3ccc(-c4nc5cc(Cl)ccc5[nH]4)cn3)CC2)c2ncccc21 | 10 nM | – | 3.4 µM | < 10 µM | – | – | – | – | – |
| N#Cc1ccc(N2C(=O)NC3(CCN(c4ccc(-c5nc6cc(C(F)(F)F)ccc6[nH]5)cn4)CC3)C2=O)cc1 | 377 nM | – | – | – | – | – | – | – | – |
| O=C1OC2(CCN(c3ccc(-c4nc5cc(Cl)ccc5[nH]4)cn3)CC2)c2ccccc21 | 52 nM | – | – | – | – | – | – | – | – |
| O=C(O)c1ccc2c(c1)C(=O)OC21CCN(c2ccc(-c3nc4cc(C(F)(F)F)ccc4[nH]3)cn2)CC1 | – | – | – | < 10 µM | – | – | – | 0.56 µM | – |
| Cc1cccc(Cl)c1NC(=O)N1CCN(c2ccc(-c3nc4cc(C(F)(F)F)ccc4[nH]3)cn2)CC1 | 89 nM | – | – | – | – | – | – | – | – |
| O=S1(=O)CCC(N2CCN(c3ccc(-c4nc5cc(C(F)(F)F)ccc5[nH]4)cn3)CC2)C1 (centres undefined) | 131 nM | – | – | – | – | – | – | – | – |
| CS(=O)(=O)C1CCN(c2ccc(-c3nc4cc(C(F)(F)F)ccc4[nH]3)cn2)CC1 | 216 nM | – | – | – | – | – | – | – | – |
| Clc1ccc2[nH]c(-c3ccc(N4CCC5(CC4)OCc4ccccc45)nc3)nc2c1 | 137 nM | – | – | – | – | – | – | – | – |
| O=C(O)CC1CCC2(CC1)CCN(c1ccc(-c3nc4cc(C(F)(F)F)ccc4[nH]3)cn1)CC2 | 6 nM | 45 µM (≈ 21.3 µg/mL) | 10.8 µM | < 4 µM | 6.4 µM | 1.76 | > 30 µM | – | – |
| O=C1OC2(CCN(c3ccc(-c4nc5cc(C(F)(F)F)ccc5[nH]4)cn3)CC2)CN1c1ccccc1 | 1410 nM | – | – | – | – | – | – | – | – |
| O=C(O)CN1CCC2(CC1)CCN(c1ccc(-c3nc4cc(C(F)(F)F)ccc4[nH]3)cn1)CC2 | > 10000 nM | 168 µM (≈ 79.5 µg/mL) | > 50 µM | 207 µM (≈ 98 µg/mL) | > 50 µM | 1.38 | > 30 µM | 4.8 µM | – |
| O=C(O)CC1CCC2(CCN(c3ccc(-c4nc5cc(C(F)(F)F)ccc5[nH]4)cn3)CC2)OC1 (racemic) | – | 172 µM (≈ 81.6 µg/mL) | > 50 µM | 179 µM (≈ 84.9 µg/mL) | > 50 µM | 1.52 | > 30 µM | 7.8 µM | – |
| O=C(O)CC1CCOC2(CCN(c3ccc(-c4nc5cc(C(F)(F)F)ccc5[nH]4)cn3)CC2)C1 (racemic) | – | 184 µM (≈ 87.3 µg/mL) | > 50 µM | 185 µM (≈ 87.8 µg/mL) | > 50 µM | 1.43 | > 30 µM | – | – |
| O=C(O)CC1CCC2(CCN(c3ccc(-c4nc5cc(C(F)(F)F)ccc5[nH]4)cn3)CC2)O1 (racemic) | – | 149 µM (≈ 68.6 µg/mL) | > 50 µM | 170 µM (≈ 78.3 µg/mL) | > 50 µM | 1.55 | > 30 µM | > 60 µM | CL (Rattus norvegicus): 34.2 mL/min/kg |
| O=C(O)CC1CCC2(CCN(c3ccc(-c4nc5cc(C(F)(F)F)ccc5[nH]4)cn3)CC2)OC1 (single isomer, unassigned; ent B) | – | – | 25.6 µM | – | 13.3 µM | – | > 30 µM | 1.2 µM | – |
| O=C(O)CC1CCC2(CCN(c3ccc(-c4nc5cc(C(F)(F)F)ccc5[nH]4)cn3)CC2)O1 (single isomer, unassigned; form 1) | – | – | – | – | – | – | – | 16 µM | solubility [2]: 190 µM (≈ 87.5 µg/mL); solubility [3]: > 200 µM; logD [5]: 1.52 |
| O=C(O)CC1CCC2(CCN(c3ccc(-c4nc5cc(C(F)(F)F)ccc5[nH]4)cn3)CC2)O1 (single isomer, unassigned; form 2) | – | – | 39.5 µM | – | > 50 µM | – | > 30 µM | 17.4 µM | solubility [2]: 147 µM (≈ 67.7 µg/mL); solubility [3]: 163 µM (≈ 75.1 µg/mL); logD [5]: 1.58 |
| O=C(O)CC1CCC2(CCN(c3ccc(-c4nc5cc(C(F)(F)F)ccc5[nH]4)cn3)CC2)OC1 (stereo in doubt) | – | – | 20.4 µM | – | 19.5 µM | – | > 30 µM | 0.8 µM | – |
| O=C(O)CC1CCOC2(CCN(c3ccc(-c4nc5cc(C(F)(F)F)ccc5[nH]4)cn3)CC2)C1 (stereo in doubt; form 1) | – | – | 45.2 µM | – | > 50 µM | – | > 30 µM | – | solubility [2]: 168 µM (≈ 79.7 µg/mL); solubility [3]: 173 µM (≈ 82.1 µg/mL); logD [5]: 1.48 |
| O=C(O)CC1CCOC2(CCN(c3ccc(-c4nc5cc(C(F)(F)F)ccc5[nH]4)cn3)CC2)C1 (stereo in doubt; form 2) | – | – | 35.1 µM | – | > 50 µM | – | > 30 µM | – | solubility [2]: 174 µM (≈ 82.6 µg/mL); solubility [3]: 169 µM (≈ 80.2 µg/mL); logD [5]: 1.47 |
